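Cultured in 96-well plates, cells were exposed to test compound for 48 hours across five concentrations. GI50 is the concentration that inhibits growth by half.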 The source made the active and inactive calls. Rule as the data show it: active = GI50 up to about 1.1 µM and inactive = higher.
What was measured:
Assay in all cases: NCI tumour cell line growth inhibition, 48 h
786-0 = tested on: 786-0
A498 = tested on: A498
A549 = tested on: A549
ACHN = tested on: ACHN
BT-549 = tested on: BT-549
CAKI-1 = tested on: CAKI-1
CCRF-CEM = tested on: CCRF-CEM
COLO 205 = tested on: COLO 205
DU-145 = tested on: DU-145
EKVX = tested on: EKVX
HCC 2998 = tested on: HCC 2998
HCT-116 = tested on: HCT-116
HCT-15 = tested on: HCT-15
HL-60 = tested on: HL-60
HOP-62 = tested on: HOP-62
HOP-92 = tested on: HOP-92
HT-29 = tested on: HT-29
Hs-578T = tested on: Hs-578T
IGROV-1 = tested on: IGROV-1
K562 = tested on: K562
KM12 = tested on: KM12
LOX IMVI = tested on: LOX IMVI
M14 = tested on: M14
MCF7 = tested on: MCF7
MDA-MB-231 = tested on: MDA-MB-231
MDA-MB-435 = tested on: MDA-MB-435
MDA-N = tested on: MDA-N
MOLT-4 = tested on: MOLT-4
Malme-3M = tested on: Malme-3M
NCI-H226 = tested on: NCI-H226
NCI-H23 = tested on: NCI-H23
NCI-H460 = tested on: NCI-H460
NCI-H522 = tested on: NCI-H522
NCI/ADR-RES = tested on: NCI/ADR-RES
OVCAR-3 = tested on: OVCAR-3
OVCAR-4 = tested on: OVCAR-4
OVCAR-5 = tested on: OVCAR-5
OVCAR-8 = tested on: OVCAR-8
PC-3 = tested on: PC-3
RPMI-8226 = tested on: RPMI-8226
RXF 393 = tested on: RXF 393
SF-268 = tested on: SF-268
SF-295 = tested on: SF-295
SF-539 = tested on: SF-539
SK-MEL-28 = tested on: SK-MEL-28
SK-MEL-2 = tested on: SK-MEL-2
SK-MEL-5 = tested on: SK-MEL-5
SK-OV-3 = tested on: SK-OV-3
SN12C = tested on: SN12C
SNB-19 = tested on: SNB-19
SNB-75 = tested on: SNB-75
SR = tested on: SR
SW-620 = tested on: SW-620
T47D = tested on: T47D
TK-10 = tested on: TK-10
U-251 = tested on: U-251
UACC-257 = tested on: UACC-257
UACC-62 = tested on: UACC-62
UO-31 = tested on: UO-31

CCOC(=O)NC(C(=O)OCC)(N1CCN(c2cc3c(cc2F)c(=O)c(C(=O)O)cn3CC)CC1)C(F)(F)F (configuration not stated)
GI50 (786-0): > 100 µM (inactive)
GI50 (A498): > 100 µM (inactive)
GI50 (A549): > 100 µM (inactive)
GI50 (ACHN): > 100 µM (inactive)
GI50 (BT-549): > 100 µM (inactive)
GI50 (CAKI-1): > 100 µM (inactive)
GI50 (CCRF-CEM): > 100 µM (inactive)
GI50 (COLO 205): > 100 µM (inactive)
GI50 (DU-145): > 100 µM (inactive)
GI50 (EKVX): 13.2 µM (inactive)
GI50 (HCC 2998): > 100 µM (inactive)
GI50 (HCT-116): > 100 µM (inactive)
GI50 (HCT-15): > 100 µM
GI50 (HL-60): > 100 µM (inactive)
GI50 (HOP-62): > 100 µM (inactive)
GI50 (HOP-92): > 100 µM (inactive)
GI50 (HT-29): > 100 µM (inactive)
GI50 (Hs-578T): > 100 µM (inactive)
GI50 (IGROV-1): > 100 µM (inactive)
GI50 (K562): > 100 µM (inactive)
GI50 (KM12): > 100 µM (inactive)
GI50 (LOX IMVI): > 100 µM (inactive)
GI50 (M14): > 100 µM (inactive)
GI50 (MCF7): > 100 µM (inactive)
GI50 (MDA-MB-231): > 100 µM (inactive)
GI50 (MDA-MB-435): 26.1 µM (inactive)
GI50 (MDA-N): > 100 µM (inactive)
GI50 (MOLT-4): > 100 µM (inactive)
GI50 (Malme-3M): > 100 µM (inactive)
GI50 (NCI-H226): > 100 µM (inactive)
GI50 (NCI-H23): > 100 µM (inactive)
GI50 (NCI-H460): > 100 µM (inactive)
GI50 (NCI-H522): > 100 µM (inactive)
GI50 (NCI/ADR-RES): > 100 µM (inactive)
GI50 (OVCAR-3): > 100 µM (inactive)
GI50 (OVCAR-4): > 100 µM (inactive)
GI50 (OVCAR-5): > 100 µM (inactive)
GI50 (OVCAR-8): 6.1 µM (inactive)
GI50 (PC-3): > 100 µM (inactive)
GI50 (RPMI-8226): > 100 µM (inactive)
GI50 (RXF 393): > 100 µM (inactive)
GI50 (SF-268): > 100 µM (inactive)
GI50 (SF-295): > 100 µM (inactive)
GI50 (SF-539): > 100 µM (inactive)
GI50 (SK-MEL-28): 0.197 µM (active)
GI50 (SK-MEL-2): > 100 µM (inactive)
GI50 (SK-MEL-5): > 100 µM (inactive)
GI50 (SK-OV-3): > 100 µM (inactive)
GI50 (SN12C): > 100 µM (inactive)
GI50 (SNB-19): > 100 µM (inactive)
GI50 (SNB-75): > 100 µM (inactive)
GI50 (SR): > 100 µM (inactive)
GI50 (SW-620): > 100 µM (inactive)
GI50 (T47D): > 100 µM (inactive)
GI50 (TK-10): > 100 µM (inactive)
GI50 (U-251): 58.1 µM (inactive)
GI50 (UACC-257): > 100 µM (inactive)
GI50 (UACC-62): > 100 µM (inactive)
GI50 (UO-31): > 100 µM (inactive)

NCCCN1c2ccccc2Sc2ccc(Cl)cc21
GI50 (786-0): 3.24 µM (inactive)
GI50 (A498): > 10 µM (inactive)
GI50 (A549): 4.59 µM (inactive)
GI50 (ACHN): 6.18 µM (inactive)
GI50 (BT-549): > 7.62 µM (inactive)
GI50 (CAKI-1): > 8.24 µM (inactive)
GI50 (CCRF-CEM): 3.19 µM (inactive)
GI50 (COLO 205): 1.81 µM (inactive)
GI50 (DU-145): > 10 µM (inactive)
GI50 (EKVX): > 7.36 µM (inactive)
GI50 (HCC 2998): 2.12 µM (inactive)
GI50 (HCT-116): 2.53 µM (inactive)
GI50 (HCT-15): 4.72 µM
GI50 (HL-60): 9.98 µM (inactive)
GI50 (HOP-62): > 10 µM (inactive)
GI50 (HOP-92): > 10 µM (inactive)
GI50 (HT-29): 2.55 µM (inactive)
GI50 (Hs-578T): 5.01 µM (inactive)
GI50 (IGROV-1): > 5.43 µM (inactive)
GI50 (K562): 2.63 µM (inactive)
GI50 (KM12): 2.51 µM (inactive)
GI50 (LOX IMVI): 3.29 µM (inactive)
GI50 (M14): 1.73 µM (inactive)
GI50 (MCF7): 1.76 µM (inactive)
GI50 (MDA-MB-231): 3.33 µM (inactive)
GI50 (MDA-MB-435): 1.93 µM (inactive)
GI50 (MDA-N): 3.69 µM (inactive)
GI50 (MOLT-4): 2.88 µM (inactive)
GI50 (Malme-3M): 6.97 µM (inactive)
GI50 (NCI-H226): 9.95 µM (inactive)
GI50 (NCI-H23): > 10 µM (inactive)
GI50 (NCI-H460): 3.33 µM (inactive)
GI50 (NCI-H522): 3.2 µM (inactive)
GI50 (NCI/ADR-RES): > 5.4 µM (inactive)
GI50 (OVCAR-3): 5.3 µM (inactive)
GI50 (OVCAR-4): > 10 µM (inactive)
GI50 (OVCAR-5): > 5.28 µM (inactive)
GI50 (OVCAR-8): 5.7 µM (inactive)
GI50 (PC-3): 4.17 µM (inactive)
GI50 (RPMI-8226): 3.95 µM (inactive)
GI50 (RXF 393): > 7.28 µM (inactive)
GI50 (SF-268): 8.17 µM (inactive)
GI50 (SF-295): > 5.83 µM (inactive)
GI50 (SF-539): 5.22 µM (inactive)
GI50 (SK-MEL-28): > 5.85 µM (inactive)
GI50 (SK-MEL-2): > 6.21 µM (inactive)
GI50 (SK-MEL-5): > 4.02 µM (inactive)
GI50 (SK-OV-3): > 6.56 µM (inactive)
GI50 (SN12C): 6 µM (inactive)
GI50 (SNB-19): > 8.45 µM (inactive)
GI50 (SNB-75): > 6.98 µM (inactive)
GI50 (SR): 2.18 µM (inactive)
GI50 (SW-620): 2.9 µM (inactive)
GI50 (T47D): > 5.36 µM (inactive)
GI50 (TK-10): 5.96 µM (inactive)
GI50 (U-251): 5.38 µM (inactive)
GI50 (UACC-257): > 6.19 µM (inactive)
GI50 (UACC-62): > 7.31 µM (inactive)
GI50 (UO-31): 7.8 µM (inactive)

CCc1c(C)c(C#N)c(=S)n(C2OC(COC(C)=O)C(OC(C)=O)C(OC(C)=O)C2OC(C)=O)c1-c1ccccc1 (configuration not stated)
GI50 (786-0): 20.7 µM (inactive)
GI50 (A498): 14.6 µM (inactive)
GI50 (A549): > 31.6 µM (inactive)
GI50 (ACHN): 23.7 µM (inactive)
GI50 (BT-549): 52.1 µM (inactive)
GI50 (CAKI-1): 72.3 µM (inactive)
GI50 (CCRF-CEM): 33.7 µM (inactive)
GI50 (COLO 205): > 31.6 µM (inactive)
GI50 (DU-145): > 31.6 µM (inactive)
GI50 (EKVX): 97.9 µM (inactive)
GI50 (HCC 2998): > 31.6 µM (inactive)
GI50 (HCT-116): 26.7 µM (inactive)
GI50 (HCT-15): > 31.6 µM
GI50 (HL-60): > 100 µM (inactive)
GI50 (HOP-62): 15.8 µM (inactive)
GI50 (HOP-92): 22.1 µM (inactive)
GI50 (HT-29): > 31.6 µM (inactive)
GI50 (Hs-578T): 20.7 µM (inactive)
GI50 (IGROV-1): 23.7 µM (inactive)
GI50 (K562): 21.1 µM (inactive)
GI50 (KM12): > 31.6 µM (inactive)
GI50 (LOX IMVI): > 31.6 µM (inactive)
GI50 (M14): > 31.6 µM (inactive)
GI50 (MCF7): > 31.6 µM (inactive)
GI50 (MDA-MB-231): 28.4 µM (inactive)
GI50 (MDA-MB-435): > 31.6 µM (inactive)
GI50 (MDA-N): > 31.6 µM (inactive)
GI50 (MOLT-4): > 31.6 µM (inactive)
GI50 (Malme-3M): > 31.6 µM (inactive)
GI50 (NCI-H226): 18.5 µM (inactive)
GI50 (NCI-H23): > 31.6 µM (inactive)
GI50 (NCI-H460): > 31.6 µM (inactive)
GI50 (NCI-H522): 26.1 µM (inactive)
GI50 (NCI/ADR-RES): > 31.6 µM (inactive)
GI50 (OVCAR-3): > 31.6 µM (inactive)
GI50 (OVCAR-4): > 31.5 µM (inactive)
GI50 (OVCAR-5): > 31.6 µM (inactive)
GI50 (OVCAR-8): > 31.6 µM (inactive)
GI50 (PC-3): > 10 µM (inactive)
GI50 (RPMI-8226): 82 µM (inactive)
GI50 (RXF 393): > 10 µM (inactive)
GI50 (SF-268): > 31.6 µM (inactive)
GI50 (SF-295): 16.2 µM (inactive)
GI50 (SF-539): 23.6 µM (inactive)
GI50 (SK-MEL-28): > 31.6 µM (inactive)
GI50 (SK-MEL-2): 21.8 µM (inactive)
GI50 (SK-MEL-5): > 31.6 µM (inactive)
GI50 (SK-OV-3): > 10 µM (inactive)
GI50 (SN12C): > 31.6 µM (inactive)
GI50 (SNB-19): > 10 µM (inactive)
GI50 (SNB-75): 1.84 µM (inactive)
GI50 (SR): > 31.6 µM (inactive)
GI50 (SW-620): > 100 µM (inactive)
GI50 (T47D): > 31.6 µM (inactive)
GI50 (TK-10): 22.1 µM (inactive)
GI50 (U-251): 17.3 µM (inactive)
GI50 (UACC-257): > 31.6 µM (inactive)
GI50 (UACC-62): > 10 µM (inactive)
GI50 (UO-31): > 24.6 µM (inactive)

From ChEMBL document CHEMBL1201862, “PubChem BioAssay data set” (2004)
